Test results: patent US10265330B2, “Pharmaceutical compositions and treatment of mastitis” (BAYER ANIMAL HEALTH GMBH, priority 2012, dated 2019)

Assays:
S. aureus = type: cell-based, Staphylococcus aureus; conditions: single compound
Description: (§1) The mutant prevention concentration (MPC) is the drug concentration that blocks the growth of the least susceptible, single-step mutant. Above this concentration, cell growth requires the presence of two or more resistance mutations. Since two concurrent mutations are expected to arise rarely, resistance is expected to develop rarely when drug concentrations are kept above the MPC. For further information regarding the MPC, it is by way of example referred to Drlica, K. (2003). The mutant selection window and antimicrobial resistance. Journal of Antimicrobial Chemotherapy, 52(1), 11-17; and to Blondeau, J. M. (2009). New concepts in antimicrobial susceptibility testing: the mutant prevention concentration and mutant selection window approach. Veterinary dermatology, 20(5-6), 383-396.

[1] = tested on: Staphylococcus aureus Newbould 305 (ATCC 29740); assay: S. aureus mouse mastitis model (MMM), intramammary treatment; type: in vivo, lactating CD-1 mice; conditions: for Median CFU log10: glands harvested 18 h after inoculation
Procedure: The mice were treated intramammarily (IMAM) with enrofloxacin, fosfomycin and a combination of enrofloxacin and fosfomycin as detailed in Table 1 four hours after inoculation. Each treatment group contained at least 3 mice (6 glands). Fourteen hours later (18 hours after inoculation) mice were sacrificed, mammary glands were harvested and the CFU content evaluated by plating 10-fold serial dilutions of mammary gland homogenates. The CFU content was expressed as log10 count. The detection limit was 200 CFU/g of gland. Glands with less than 200 CFU/g were regarded as cleared of S. aureus (see Table 1).
For each treatment group median log10 reductions of CFU were determined by subtracting the median log10 CFU value of the respective group from the median log10 CFU value of the untreated control group.

Staphylococcus aureus = assay: Field trial, dairy cattle with subclinical mastitis; type: in vivo; conditions: 400 mg cefazolin and/or 1000 mg fosfomycin per quarter, six times at 12 h interval; for Cure rate of S. aureus infection / Cure rate of S. aureus infection (cured quarters/treated quarters): paraffin based ointment, milk samples 3 and 4 weeks after treatment
Procedure: In another field trial, dairy cattle with subclinical mastitis, i.e. persistent, chronic udder infections caused by Staphylococcus aureus, were treated with either cefazolin, fosfomycin or a combination of both compounds. […] The affected quarters were treated with this ointment six consecutive times with an interval of 12 hours between each application. […] Following treatment, the level of udder inflammation, as measured by the Somatic Cell Count in the milk samples post treatment, was lower in the udders treated with the cefazolin-fosfomycin combination (46% of milk samples with a SCC lower than 300,000 cells/mL) than in udders treated with cefazolin alone (30% of milk samples with a SCC lower than 300,000 cells/mL) or with fosfomycin alone (24% of milk samples with a SCC lower than 300,000 cells/mL).

[2] = tested on: Streptococus uberis, Staphylococus aureus, Escherichia coli, other streptococci and mixed infections; assay: Field study, dairy cattle with clinical mastitis; type: in vivo; conditions: 400 mg cefazolin and/or 1000 mg fosfomycin per quarter, paraffin based ointment, three times at 24 h interval; milk samples 1-3 weeks after treatment
Procedure: In a first field-study, dairy cattle with clinical mastitis were treated under field conditions with either cefazolin, fosfomycin or a combination of both compounds. […] The diseased quarters were treated with this ointment three consecutive times with an interval of 24 hours between each application. When a milk sample was taken from the diseased udder quarters before the treatment for the diagnosis of mastitis infection, pathogenic bacteria typical of clinical mastitis were isolated, i.e. Streptococus uberis, Staphylococus aureus, Escherichia coli, other streptococci and mixed infections of the aforementioned species. […] Diseased udder quarters were considered cured when the clinical symptoms of mastitis had disappeared within one week without requiring a new antibiotic treatment and when the causative pathogenic bacterium, found in the diagnostic milk sample shortly before treatment, could not be isolated from any of the milk samples taken from one to three weeks following treatment. The cure rate of mastitis infection was higher in the udder quarters treated with the combination ointment (cefazolin together with fosfomycin), i.e. 17/38 (45%), than in the quarters treated with the ointment containing cefazolin alone ( 11/35, 31%) or fosfomycin alone ( 13/37, 35%).

E. coli = type: cell-based, Escherichia coli; conditions: single compound
Description: as §1

[3] = dose 100 μg IMAM, listed as enrofloxacin

SMILES | MPC against S. aureus (S. aureus) [µg/mL] | Cleared glands % (less than 200 CFU/g) ([1]; dose 100 μg IMAM) | log10 CFU reduction (median, vs untreated control) ([1]; dose 100 μg IMAM) [log10] | Cure rate of S. aureus infection (Staphylococcus aureus) [%] | Cure rate of S. aureus infection (cured quarters/treated quarters) (Staphylococcus aureus) | Cured quarters with SCC returned to normal (lower than 300,000 cells per mL) (Staphylococcus aureus) [%] | Cured quarters with SCC returned to normal (lower than 300,000 cells per mL), quarters/treated quarters (Staphylococcus aureus) | Milk samples post treatment with a SCC lower than 300,000 cells/mL (Staphylococcus aureus) [%] | Cure rate of mastitis infection [2] [%] | Cure rate of mastitis infection (cured quarters/treated quarters) [2] | MPC against E. coli (E. coli) [µg/mL] | further results
CCN1CCN(c2cc3c(cc2F)c(=O)c(C(=O)O)cn3C2CC2)CC1 [Enrofloxacin, enrofloxacin] | 3 | 0% | 1.41 |  |  |  |  |  |  |  |  | Median CFU log10 ([1]; dose 100 μg IMAM 4 h after inoculation): 6.8 CFU log10; Cleared glands % (less than 200 CFU/g) [1, 3]: does not eliminate the infection; log10 CFU reduction (median, vs untreated control) [1, 3]: 1.4 log10
C[C@@H]1O[C@@H]1P(=O)(O)O [Fosfomycin, [(2R,3S)-3-methyloxiran-2-yl]phosphonic acid] | 1500 | does not eliminate the infection | 2.0 | 57 | 27/47 | 19 | 9/47 | 24 | 35 | 13/37 | 200 | Cleared glands % (less than 200 CFU/g) ([1]; dose 500 μg IMAM): 0%; log10 CFU reduction (median, vs untreated control) ([1]; dose 500 μg IMAM): 3.3 log10; Median CFU log10 ([1]; dose 500 μg IMAM 4 h after inoculation): 5.0 CFU log10; Cleared glands % (less than 200 CFU/g) ([1]; dose 500 μg IMAM, listed as fosfomycin): does not eliminate the infection; Cleared glands % (less than 200 CFU/g) ([1]; dose 1000 μg IMAM): 0%; log10 CFU reduction (median, vs untreated control) ([1]; dose 1000 μg IMAM): 5.1 log10; Median CFU log10 ([1]; dose 1000 μg IMAM 4 h after inoculation): 3.2 CFU log10; Cleared glands % (less than 200 CFU/g) ([1]; dose 1000 μg IMAM, listed as fosfomycin): does not eliminate the infection
CC1(C)S[C@@H]2[C@H](NC(=O)[C@H](N)c3ccc(O)cc3)C(=O)N2[C@H]1C(=O)O [amoxicillin] |  | does not eliminate the infection | 1.6 |  |  |  |  |  |  |  |  | 
Cc1nnc(SCC2=C(C(=O)O)N3C(=O)[C@@H](NC(=O)Cn4cnnn4)[C@H]3SC2)s1 [cefazolin] | 1.25 | does not eliminate the infection | 5.1 | 46 | 20/43 | 23 | 10/43 | 30 | 31 | 11/35 | 64 | Cleared glands % (less than 200 CFU/g) ([1]; dose 50 microgram IMAM): does not eliminate the infection; log10 CFU reduction (median, vs untreated control) ([1]; dose 50 microgram IMAM): 4.5 log10
CC[C@@H]1CCN[C@H](C(=O)N[C@@H]([C@H]2O[C@H](SC)[C@H](O)[C@@H](O)[C@H]2O)[C@H](C)Cl)C1 [pirlimycin] | 2 |  |  |  |  |  |  |  |  |  |  | Cleared glands % (less than 200 CFU/g) ([1]; dose 10 microgram IMAM): does not eliminate the infection; log10 CFU reduction (median, vs untreated control) ([1]; dose 10 microgram IMAM): 3.3 log10
